According to US20190381024A1, “NICOTINAMIDE FOR LOWERING PHOSPHATE LEVELS IN HYPERPHOSPHATEMIA” (MEDICE Arzneimittel Putter GmbH & Co. KG, priority 2015, published 2019):
Where two headings read alike, the source gives them in different places.

Tests used:
NaPi-IIb [1] = molecular target: T1, NaPi-IIb (Homo sapiens, UniProt O95436); conditions: duodenal and jejunal BBM; cited from earlier work
T1 sequence (O95436 1-690): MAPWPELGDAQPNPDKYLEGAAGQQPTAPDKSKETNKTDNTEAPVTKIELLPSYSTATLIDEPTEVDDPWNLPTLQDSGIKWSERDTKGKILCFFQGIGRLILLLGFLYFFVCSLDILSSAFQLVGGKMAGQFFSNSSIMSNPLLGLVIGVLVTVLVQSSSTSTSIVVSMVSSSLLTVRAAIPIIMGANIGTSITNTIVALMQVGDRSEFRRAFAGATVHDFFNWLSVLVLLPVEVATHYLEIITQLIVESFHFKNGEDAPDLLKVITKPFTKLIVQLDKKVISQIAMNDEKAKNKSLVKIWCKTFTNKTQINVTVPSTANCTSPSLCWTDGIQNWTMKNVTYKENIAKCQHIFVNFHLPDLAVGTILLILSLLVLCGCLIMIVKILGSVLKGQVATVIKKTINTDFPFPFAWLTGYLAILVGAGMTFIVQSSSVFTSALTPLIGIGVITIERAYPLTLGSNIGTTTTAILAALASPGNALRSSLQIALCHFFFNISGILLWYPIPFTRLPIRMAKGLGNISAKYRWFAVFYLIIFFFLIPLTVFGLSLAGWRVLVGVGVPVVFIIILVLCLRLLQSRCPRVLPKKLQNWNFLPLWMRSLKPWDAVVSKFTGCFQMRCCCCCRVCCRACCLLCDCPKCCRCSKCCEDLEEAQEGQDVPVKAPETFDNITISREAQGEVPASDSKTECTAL

NaPi-IIc = molecular target: T2, NaPi-IIc (Homo sapiens, UniProt Q8N130); conditions: proximal renal tubule BBM (S1); cited from earlier work
T2 sequence (Q8N130 1-599): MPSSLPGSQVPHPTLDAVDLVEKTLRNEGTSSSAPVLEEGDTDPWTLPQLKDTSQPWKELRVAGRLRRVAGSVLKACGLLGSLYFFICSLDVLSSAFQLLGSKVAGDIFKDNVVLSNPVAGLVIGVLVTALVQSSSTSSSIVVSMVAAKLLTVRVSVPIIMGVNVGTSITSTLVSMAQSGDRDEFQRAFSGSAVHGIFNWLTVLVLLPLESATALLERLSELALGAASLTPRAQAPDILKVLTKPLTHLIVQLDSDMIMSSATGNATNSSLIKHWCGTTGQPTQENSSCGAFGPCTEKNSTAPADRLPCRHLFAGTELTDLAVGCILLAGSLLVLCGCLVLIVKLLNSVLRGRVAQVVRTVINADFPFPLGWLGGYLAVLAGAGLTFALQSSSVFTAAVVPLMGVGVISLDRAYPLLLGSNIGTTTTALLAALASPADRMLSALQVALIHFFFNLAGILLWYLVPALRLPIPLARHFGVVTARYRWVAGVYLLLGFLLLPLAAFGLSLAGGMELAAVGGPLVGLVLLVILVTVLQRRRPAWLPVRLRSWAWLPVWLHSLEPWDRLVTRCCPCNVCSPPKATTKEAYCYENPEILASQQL

NaPi-IIa = molecular target: T3, NaPi-IIa (Homo sapiens, UniProt Q06495); conditions: proximal renal tubule BBM (S1-S3); cited from earlier work
T3 sequence (Q06495 1-639): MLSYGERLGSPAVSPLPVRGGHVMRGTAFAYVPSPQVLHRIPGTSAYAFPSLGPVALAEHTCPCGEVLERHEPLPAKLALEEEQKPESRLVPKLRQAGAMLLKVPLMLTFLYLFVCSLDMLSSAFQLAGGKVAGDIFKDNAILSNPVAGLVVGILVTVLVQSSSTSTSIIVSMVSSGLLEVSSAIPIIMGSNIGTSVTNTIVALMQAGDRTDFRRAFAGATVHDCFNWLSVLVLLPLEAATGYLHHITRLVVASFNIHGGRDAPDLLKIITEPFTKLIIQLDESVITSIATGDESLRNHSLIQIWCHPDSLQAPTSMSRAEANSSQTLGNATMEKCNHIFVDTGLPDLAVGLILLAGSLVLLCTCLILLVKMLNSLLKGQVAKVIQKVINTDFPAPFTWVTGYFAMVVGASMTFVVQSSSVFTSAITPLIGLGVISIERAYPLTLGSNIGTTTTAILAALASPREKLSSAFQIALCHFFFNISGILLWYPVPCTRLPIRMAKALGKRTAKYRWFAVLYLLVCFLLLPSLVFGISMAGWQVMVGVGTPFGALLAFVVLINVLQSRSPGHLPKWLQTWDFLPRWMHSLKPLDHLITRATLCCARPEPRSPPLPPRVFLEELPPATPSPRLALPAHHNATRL

NaPi-IIb receptor = experiment: Expression of NaPi-IIb receptor in the small intestine over 5 weeks (FIG. 1); format: in vivo; conditions: nicotinamide 10 mg/kg body weight, conventional binder calcium carbonate 10 mg/kg, sevelamer 20 mg/kg body weight
[2] = animals; cited from earlier work
[3] = intraperitoneal administration; cited from earlier work
[4] = Clinical study of serum phosphate levels in CKD patients on hemodialysis (FIG. 2-5); format: in vivo, human
Description: A study has been undertaken wherein administration of a conventional phosphate binder as well as administration of nicotinamide has been compared with the administration of a combination of a phosphate binder and nicotinamide. For concrete numbers of the amount of patients tested as well as with regard to the phosphate binder and the dosing of phosphate binder and nicotinamide, further details can be taken from the following description, also with regard to the Figures.
These findings are derived from several clinical findings in which chronic renal insufficient patients underwent various medication regimes after an initial wash out phase over 4 weeks to eliminate and to control for pre-medication effects.

NaPi-IIb [5] = conditions: intraperitoneal administration; cited from earlier work
[6] = human, CKD patients; cited from earlier work

Compound | Pharmacological regulators (direction of regulation) of NaPi-IIb (NaPi-IIb [1]) | Pharmacological regulators (direction of regulation) of NaPi-IIc (NaPi-IIc) | Pharmacological regulators (direction of regulation) of NaPi-IIa (NaPi-IIa) | expression of NaPi-IIb in the small intestine (NaPi-IIb receptor) | lowering elevated phosphate levels [2] | gastrointestinal absorption of phosphate [3] | reduction of serum phosphate ([4]; combination of nicotinamide and known phosphate lowering agents versus dose-equivalent nicotinamide alone or binders alone) | patients achieving target levels <1.78 mmol/l ([4]; nicotinamide 250 to 1000 mg once daily as add on to previous conventional phosphate binder therapy, 9 weeks, n=126 ITT) [%] | patients with phosphate levels <1.78 mmol/l ([4]; nicotinamide alone, 250 to 1000 mg oral once daily, 9 weeks, n=126 ITT) [%] | expression of NaPi-IIb (NaPi-IIb [5]) | lowering elevated phosphate levels [6]
O=C(O)P(=O)(O)O [PFA, Phosphonoformic acid] | PFA (↓) | PFA (↓) | PFA (↓) |  |  |  |  |  |  |  | 
NC(=O)c1cccnc1 [nicotinamide] | Nicotinamide (↓) |  |  | downregulates | effective | inhibits | more profound and superior reduction | 69 | 45 | blocks | effective
